Laboratory results reported in ChEMBL document CHEMBL3885861, “Open TG-GATES”.

Organism: Rattus norvegicus
Test: Open TG-GATES - Regimen: Daily Repeat
Type: toxicity, organism-based, Sprague-Dawley
Set-up: regimen Daily Repeat, gender Male, age 6 weeks
Details: in vivo, po, route gavage; for APTT / Bas / Eos / Fbg / Hb / Ht / Lym / MCH / MCV / Mono / Neu / PT / Plat / RBC / Ret / WBC: tissue Blood; for KIDNEY_L / KIDNEY_R / KIDNEY_TOTAL: tissue Kidney; for LIVER: tissue Liver; for ALP / ALT / AST / BUN / CRE / Ca / Cl / DBIL / GLC / IP / K / LDH / Na / PL / RALB / TBIL / TP / gamma-GTP: tissue Plasma
[1] = 0 mg/kg, 72 h, dose level Control, time 3 day
[2] = 0 mg/kg, […], dose level Control, time 7 day
[3] = 0 mg/kg, […], dose level Control, time 14 day
[4] = 0 mg/kg, […], dose level Control, time 28 day
[5] = 30 mg/kg, 72 h, dose level Low, time 3 day
[6] = 30 mg/kg, […], dose level Low, time 7 day
[7] = 30 mg/kg, […], dose level Low, time 14 day
[8] = 30 mg/kg, […], dose level Low, time 28 day
[9] = 100 mg/kg, 72 h, dose level Middle, time 3 day

NC(=O)N1c2ccccc2C=Cc2ccccc21 [CARBAMAZEPINE]
TERMINAL_BW [1]: 235.3 g
APTT [1]: 19.1 s
Bas [1]: 0%
Eos [1]: 1%
Fbg [1]: 213.8 mg/dL
Hb [1]: 13.6 g/dL
Ht [1]: 40.2%
Lym [1]: 79%
MCH [1]: 21 pg
MCV [1]: 61.9 fL
Mono [1]: 3.6%
Neu [1]: 15.6%
PT [1]: 12.3 s
Plat [1]: 123.2 x10_4/uL
RBC [1]: 648.8 x10_4/ul
Ret [1]: 4.9%
WBC [1]: 95.6 x10_2/uL
KIDNEY_L [1]: 1.1 g
KIDNEY_R [1]: 1.1 g
KIDNEY_TOTAL [1]: 2.2 g
LIVER [1]: 11.5 g
ALP [1]: 1022.4 IU/L
ALT [1]: 41.4 IU/L
AST [1]: 77 IU/L
BUN [1]: 15.6 mg/dL
CRE [1]: 0.4 mg/dL
Ca [1]: 10.7 mg/dL
Cl [1]: 102.4 meq/L
DBIL [1]: 0.08 mg/dL
GLC [1]: 213.8 mg/dL
IP [1]: 7.8 mg/dL
K [1]: 3.8 meq/L
LDH [1]: 178.8 IU/L
Na [1]: 140.4 meq/L
PL [1]: 144 mg/dL
RALB [1]: 3.3 g/dL
TBIL [1]: 0.1 mg/dL
TP [1]: 5.6 g/dL
gamma-GTP [1]: 0.8 IU/L
TERMINAL_BW [2]: 265.1 g
TERMINAL_BW [3]: 321.1 g
TERMINAL_BW [4]: 388.8 g
APTT [2]: 21.2 s
Bas [2]: 0%
Eos [2]: 1%
Fbg [2]: 223 mg/dL
Hb [2]: 14 g/dL
Ht [2]: 40.8%
Lym [2]: 81%
MCH [2]: 20.8 pg
MCV [2]: 60.5 fL
Mono [2]: 2.4%
Neu [2]: 14.4%
PT [2]: 11.9 s
Plat [2]: 122.6 x10_4/uL
RBC [2]: 674.4 x10_4/ul
Ret [2]: 3.8%
WBC [2]: 90.9 x10_2/uL
APTT [3]: 22 s
Bas [3]: 0%
Eos [3]: 1%
Fbg [3]: 219 mg/dL
Hb [3]: 14.5 g/dL
Ht [3]: 41.7%
Lym [3]: 82.2%
MCH [3]: 20.7 pg
MCV [3]: 59.6 fL
Mono [3]: 2.6%
Neu [3]: 13.2%
PT [3]: 12.2 s
Plat [3]: 129 x10_4/uL
RBC [3]: 700.4 x10_4/ul
Ret [3]: 4.2%
WBC [3]: 120.8 x10_2/uL
APTT [4]: 20.4 s
Bas [4]: 0%
Eos [4]: 1.2%
Fbg [4]: 212.8 mg/dL
Hb [4]: 15.3 g/dL
Ht [4]: 43.3%
Lym [4]: 81%
MCH [4]: 20.1 pg
MCV [4]: 56.8 fL
Mono [4]: 2.4%
Neu [4]: 14.6%
PT [4]: 12.2 s
Plat [4]: 111.8 x10_4/uL
RBC [4]: 762 x10_4/ul
Ret [4]: 2.4%
WBC [4]: 105.6 x10_2/uL
KIDNEY_L [2]: 1.1 g
KIDNEY_R [2]: 1.1 g
KIDNEY_TOTAL [2]: 2.3 g
KIDNEY_L [3]: 1.3 g
KIDNEY_R [3]: 1.2 g
KIDNEY_TOTAL [3]: 2.5 g
KIDNEY_L [4]: 1.4 g
KIDNEY_R [4]: 1.4 g
KIDNEY_TOTAL [4]: 2.8 g
LIVER [2]: 12.2 g
LIVER [3]: 13.6 g
LIVER [4]: 15.2 g
ALP [2]: 993 IU/L
ALT [2]: 37.6 IU/L
AST [2]: 74 IU/L
BUN [2]: 16.8 mg/dL
CRE [2]: 0.4 mg/dL
Ca [2]: 10.5 mg/dL
Cl [2]: 102.4 meq/L
DBIL [2]: 0.1 mg/dL
GLC [2]: 218.2 mg/dL
IP [2]: 7.5 mg/dL
K [2]: 3.8 meq/L
LDH [2]: 218.6 IU/L
Na [2]: 140.6 meq/L
PL [2]: 158.6 mg/dL
RALB [2]: 3.5 g/dL
TBIL [2]: 0.2 mg/dL
TP [2]: 5.8 g/dL
gamma-GTP [2]: 1 IU/L
ALP [3]: 817.2 IU/L
ALT [3]: 36 IU/L
AST [3]: 64 IU/L
BUN [3]: 16.7 mg/dL
CRE [3]: 0.5 mg/dL
Ca [3]: 10.7 mg/dL
Cl [3]: 102.4 meq/L
DBIL [3]: 0.1 mg/dL
GLC [3]: 207.4 mg/dL
IP [3]: 7 mg/dL
K [3]: 3.8 meq/L
LDH [3]: 204.6 IU/L
Na [3]: 141.6 meq/L
PL [3]: 151.4 mg/dL
RALB [3]: 3.5 g/dL
TBIL [3]: 0.2 mg/dL
TP [3]: 5.9 g/dL
gamma-GTP [3]: 1 IU/L
ALP [4]: 739.6 IU/L
ALT [4]: 35.4 IU/L
AST [4]: 68.2 IU/L
BUN [4]: 18 mg/dL
CRE [4]: 0.5 mg/dL
Ca [4]: 10.3 mg/dL
Cl [4]: 102 meq/L
DBIL [4]: 0.1 mg/dL
GLC [4]: 224.8 mg/dL
IP [4]: 6.7 mg/dL
K [4]: 3.4 meq/L
LDH [4]: 182.6 IU/L
Na [4]: 141 meq/L
PL [4]: 147.8 mg/dL
RALB [4]: 3.4 g/dL
TBIL [4]: 0.2 mg/dL
TP [4]: 6.2 g/dL
gamma-GTP [4]: 1.2 IU/L
TERMINAL_BW [5]: 237.7 g
APTT [5]: 19.7 s
Bas [5]: 0%
Eos [5]: 1%
Fbg [5]: 213 mg/dL
Hb [5]: 13.4 g/dL
Ht [5]: 39.4%
Lym [5]: 80.4%
MCH [5]: 21 pg
MCV [5]: 62 fL
Mono [5]: 3.4%
Neu [5]: 14%
PT [5]: 12.2 s
Plat [5]: 120.4 x10_4/uL
RBC [5]: 636 x10_4/ul
Ret [5]: 5.2%
WBC [5]: 98.2 x10_2/uL
KIDNEY_L [5]: 1 g
KIDNEY_R [5]: 1 g
KIDNEY_TOTAL [5]: 2 g
LIVER [5]: 11.7 g
ALP [5]: 1007.4 IU/L
ALT [5]: 35.6 IU/L
AST [5]: 66.6 IU/L
BUN [5]: 14.8 mg/dL
CRE [5]: 0.4 mg/dL
Ca [5]: 10.8 mg/dL
Cl [5]: 103.2 meq/L
DBIL [5]: 0.094 mg/dL
GLC [5]: 209.6 mg/dL
IP [5]: 7.6 mg/dL
K [5]: 3.5 meq/L
LDH [5]: 197.2 IU/L
Na [5]: 140 meq/L
PL [5]: 148.8 mg/dL
RALB [5]: 3.3 g/dL
TBIL [5]: 0.1 mg/dL
TP [5]: 5.6 g/dL
gamma-GTP [5]: 1.2 IU/L
TERMINAL_BW [6]: 270.1 g
TERMINAL_BW [7]: 327.6 g
TERMINAL_BW [8]: 366.9 g
APTT [6]: 21.4 s
Bas [6]: 0%
Eos [6]: 0.8%
Fbg [6]: 214.2 mg/dL
Hb [6]: 13.7 g/dL
Ht [6]: 40.2%
Lym [6]: 83.2%
MCH [6]: 20.8 pg
MCV [6]: 61.1 fL
Mono [6]: 2.4%
Neu [6]: 12.6%
PT [6]: 12 s
Plat [6]: 127.1 x10_4/uL
RBC [6]: 658.2 x10_4/ul
Ret [6]: 4.4%
WBC [6]: 103.7 x10_2/uL
APTT [7]: 20.7 s
Bas [7]: 0%
Eos [7]: 1%
Fbg [7]: 206.2 mg/dL
Hb [7]: 14.3 g/dL
Ht [7]: 41.1%
Lym [7]: 83%
MCH [7]: 20.4 pg
MCV [7]: 58.8 fL
Mono [7]: 2.4%
Neu [7]: 12.6%
PT [7]: 12.2 s
Plat [7]: 119.9 x10_4/uL
RBC [7]: 700.8 x10_4/ul
Ret [7]: 4%
WBC [7]: 100 x10_2/uL
APTT [8]: 21 s
Bas [8]: 0%
Eos [8]: 0.8%
Fbg [8]: 197.8 mg/dL
Hb [8]: 15.9 g/dL
Ht [8]: 45.7%
Lym [8]: 83%
MCH [8]: 19.5 pg
MCV [8]: 55.9 fL
Mono [8]: 2.2%
Neu [8]: 12.6%
PT [8]: 12.3 s
Plat [8]: 108.1 x10_4/uL
RBC [8]: 820.4 x10_4/ul
Ret [8]: 2.2%
WBC [8]: 127.9 x10_2/uL
KIDNEY_L [6]: 1.1 g
KIDNEY_R [6]: 1.1 g
KIDNEY_TOTAL [6]: 2.2 g
KIDNEY_L [7]: 1.3 g
KIDNEY_R [7]: 1.3 g
KIDNEY_TOTAL [7]: 2.6 g
KIDNEY_L [8]: 1.3 g
KIDNEY_R [8]: 1.3 g
KIDNEY_TOTAL [8]: 2.6 g
LIVER [6]: 12.5 g
LIVER [7]: 15.3 g
LIVER [8]: 14.4 g
ALP [6]: 876.6 IU/L
ALT [6]: 37 IU/L
AST [6]: 70.6 IU/L
BUN [6]: 16.2 mg/dL
CRE [6]: 0.4 mg/dL
Ca [6]: 10.4 mg/dL
Cl [6]: 100.8 meq/L
DBIL [6]: 0.088 mg/dL
GLC [6]: 233.6 mg/dL
IP [6]: 8.2 mg/dL
K [6]: 3.7 meq/L
LDH [6]: 187.4 IU/L
Na [6]: 139.4 meq/L
PL [6]: 150.8 mg/dL
RALB [6]: 3.4 g/dL
TBIL [6]: 0.1 mg/dL
TP [6]: 5.7 g/dL
gamma-GTP [6]: 1 IU/L
ALP [7]: 890.2 IU/L
ALT [7]: 30.8 IU/L
AST [7]: 60.8 IU/L
BUN [7]: 16.9 mg/dL
CRE [7]: 0.5 mg/dL
Ca [7]: 10.7 mg/dL
Cl [7]: 101.2 meq/L
DBIL [7]: 0.1 mg/dL
GLC [7]: 219.8 mg/dL
IP [7]: 7.1 mg/dL
K [7]: 3.8 meq/L
LDH [7]: 208.4 IU/L
Na [7]: 140.6 meq/L
PL [7]: 160.2 mg/dL
RALB [7]: 3.4 g/dL
TBIL [7]: 0.2 mg/dL
TP [7]: 5.9 g/dL
gamma-GTP [7]: 0.8 IU/L
ALP [8]: 673 IU/L
ALT [8]: 36.6 IU/L
AST [8]: 68.4 IU/L
BUN [8]: 17.8 mg/dL
CRE [8]: 0.5 mg/dL
Ca [8]: 10.3 mg/dL
Cl [8]: 101.8 meq/L
DBIL [8]: 0.098 mg/dL
GLC [8]: 224.4 mg/dL
IP [8]: 6.7 mg/dL
K [8]: 3.4 meq/L
LDH [8]: 150.8 IU/L
Na [8]: 141.4 meq/L
PL [8]: 148 mg/dL
RALB [8]: 3.5 g/dL
TBIL [8]: 0.1 mg/dL
TP [8]: 6.2 g/dL
gamma-GTP [8]: 1 IU/L
TERMINAL_BW [9]: 234.6 g
APTT [9]: 20.1 s
Bas [9]: 0%
